Data set [1] has as its system MCF-7 breast cancer cell line. The experiment in a line: MTT cancer cell antiproliferative assay, MCF-7. The data set is classed as cell-based. Conditions: Homo sapiens, MCF7, 24 h treatment. Here is the method:
(§1) The newly synthesized compounds 4a–e, 6a–c and 9a–d were evaluated for their in vitro anticancer activity against two breast cancer cell lines; Michigan cancer foundation-7 (MCF-7) and M.D. Anderson metastasis breast cancer-231 (MDA-MB-231) according to (3-(4,5-dimethylthiazole-2-yl)-2,5-diphenyltetrazolium bromide) tetrazolium (MTT) assay method by using erlotinib as positive tyrosine kinase (TK) drug.
(§2) The in vitro anticancer activities of the target compounds against two breast cancer cell lines; luminal human breast adenocarcinoma (estrogen-receptor (ER) and progesterone-receptor (PR)) positive MCF-7 and negative human breast cancer (MDA-MB-231) cell lines were evaluated as described with some modifications. Cell line cells were obtained from American Type Culture Collection, cells was cultured using DMEM (Invitrogen Life Technologies, Waltham, MA, USA) supplemented with 10% FBS (Hyclone, Logan, UT, USA), 10 µg/mL of insulin (Sigma, St. Louis, MO, USA), and 1% penicillin-streptomycin. All of the other chemical sand reagents were from (Sigma, St. Louis, MO, USA). The cells […] were sub-cultured into a 96-well plate with […] per well in medium, at 37 °C, 5% CO2 and 95% air atmosphere, before being treated with or without various concentrations of test compounds, each in triplicate for 24 h. At the end of the incubation, the cells were harvested and washed with PBS. 20 µL of MTT was added to each well and incubated for 2 h before 200 µL DMSO was added. The absorbance was measured on an ELISA reader (Multiskan EX, Lab systems, Waltham, MA, USA) at a test wavelength of 570 nm.

The test system of data set [2] is MDA-MB-231 breast cancer cell line. The experiment in a line: MTT cancer cell antiproliferative assay, MDA-MB-231. The data set is classed as cell-based, human. Conditions: 24 h treatment. Here is the method: as §1, §2
For data set [3], the target named is T1, epidermal growth factor receptor (EGFR) tyrosine kinase (TK) (Homo sapiens, UniProt P00533).
T1 construct: purchased Cell Signaling Technology
T1 sequence (P00533 25-1210): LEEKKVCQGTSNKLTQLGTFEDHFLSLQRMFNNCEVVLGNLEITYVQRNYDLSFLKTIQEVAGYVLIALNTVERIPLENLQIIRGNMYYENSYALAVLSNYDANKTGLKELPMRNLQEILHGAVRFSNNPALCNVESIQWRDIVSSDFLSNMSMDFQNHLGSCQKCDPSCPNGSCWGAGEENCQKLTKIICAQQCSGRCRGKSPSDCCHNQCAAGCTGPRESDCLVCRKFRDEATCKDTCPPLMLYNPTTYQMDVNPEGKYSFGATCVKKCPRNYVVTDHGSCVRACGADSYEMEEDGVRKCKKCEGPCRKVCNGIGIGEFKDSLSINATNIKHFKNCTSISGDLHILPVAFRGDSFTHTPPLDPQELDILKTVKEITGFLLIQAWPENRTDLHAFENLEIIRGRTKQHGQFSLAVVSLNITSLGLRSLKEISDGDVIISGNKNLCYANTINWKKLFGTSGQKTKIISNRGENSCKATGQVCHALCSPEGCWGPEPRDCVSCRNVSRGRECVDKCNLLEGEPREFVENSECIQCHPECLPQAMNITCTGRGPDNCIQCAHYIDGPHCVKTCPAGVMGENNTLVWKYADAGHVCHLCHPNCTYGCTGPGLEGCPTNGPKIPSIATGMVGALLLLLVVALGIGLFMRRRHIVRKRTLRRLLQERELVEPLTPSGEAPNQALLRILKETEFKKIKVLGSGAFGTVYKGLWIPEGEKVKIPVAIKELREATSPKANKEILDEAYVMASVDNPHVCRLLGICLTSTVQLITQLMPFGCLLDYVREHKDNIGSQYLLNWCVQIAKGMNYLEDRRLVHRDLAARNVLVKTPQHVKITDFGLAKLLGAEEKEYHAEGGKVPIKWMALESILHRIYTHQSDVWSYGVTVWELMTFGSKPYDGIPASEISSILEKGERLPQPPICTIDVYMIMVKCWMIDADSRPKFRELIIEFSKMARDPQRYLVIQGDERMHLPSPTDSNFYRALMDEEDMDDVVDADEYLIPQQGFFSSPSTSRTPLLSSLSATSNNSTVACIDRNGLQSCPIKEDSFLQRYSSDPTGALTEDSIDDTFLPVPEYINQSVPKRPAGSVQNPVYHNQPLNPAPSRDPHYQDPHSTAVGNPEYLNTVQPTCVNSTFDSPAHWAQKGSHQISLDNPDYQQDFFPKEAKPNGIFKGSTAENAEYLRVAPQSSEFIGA
The experiment in a line: EGFR TK inhibition assay (HT Scan EGFR kinase assay kit). Conditions: GST-EGFR protein, 400 μM ATP. The data set is classed as biochemical. Here is the method:
The compound (4b) bears flexible benzylamine terminal moiety, while the (6a) and (6c) derivatives bear sulphonamide moieties and 9a–b with Schiff fragments.
EGFR kinase activity was measured by HT Scan EGFR kinase assay kits (Cell Signaling Technology, Danvers, MA, USA). The experiments were done following the manufacturer’s directions. […] Strapavidin-coated 96-well plates was used to take phosphorylated substrate. Anti-phosphotyrosine and europium-labeled secondary antibodies (DELFIA, Perkin-Elmer, Akron, OH, USA) was used to monitor the level of phosphorylation. At the end of the assay, the enrichment solution was added and enzyme activity was assessed in the Wallac Victor II 1420 micro-plate reader (Abcam, Milton, Cambridge, UK) and […].

The target of data set [4] is tubulin polymerization (Tubulin Beta, Tubb) (Homo sapiens, UniProt P07437+P68363). The experiment in a line: Tubulin polymerization inhibition (ELISA for Tubulin Beta). The data set is classed as biochemical. The source says: Microtubule-targeting agents affect microtubule function and stop mitosis, resulting in necrosis and apoptosis and eventually cell death.
tubulin polymerization (Tubulin Beta, Tubb), sequence (P07437 whole entry): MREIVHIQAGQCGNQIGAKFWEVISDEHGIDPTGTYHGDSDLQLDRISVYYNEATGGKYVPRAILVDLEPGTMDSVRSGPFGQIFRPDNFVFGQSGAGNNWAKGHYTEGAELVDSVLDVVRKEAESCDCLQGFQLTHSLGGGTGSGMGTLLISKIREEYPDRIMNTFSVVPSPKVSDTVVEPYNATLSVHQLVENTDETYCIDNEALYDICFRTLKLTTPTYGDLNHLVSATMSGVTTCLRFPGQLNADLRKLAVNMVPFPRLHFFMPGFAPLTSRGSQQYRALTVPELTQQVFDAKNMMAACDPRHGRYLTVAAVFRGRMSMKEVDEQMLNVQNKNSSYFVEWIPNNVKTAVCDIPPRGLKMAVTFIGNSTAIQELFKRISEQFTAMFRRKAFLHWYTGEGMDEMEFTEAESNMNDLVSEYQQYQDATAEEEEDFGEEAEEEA
tubulin polymerization (Tubulin Beta, Tubb), sequence (P68363 whole entry): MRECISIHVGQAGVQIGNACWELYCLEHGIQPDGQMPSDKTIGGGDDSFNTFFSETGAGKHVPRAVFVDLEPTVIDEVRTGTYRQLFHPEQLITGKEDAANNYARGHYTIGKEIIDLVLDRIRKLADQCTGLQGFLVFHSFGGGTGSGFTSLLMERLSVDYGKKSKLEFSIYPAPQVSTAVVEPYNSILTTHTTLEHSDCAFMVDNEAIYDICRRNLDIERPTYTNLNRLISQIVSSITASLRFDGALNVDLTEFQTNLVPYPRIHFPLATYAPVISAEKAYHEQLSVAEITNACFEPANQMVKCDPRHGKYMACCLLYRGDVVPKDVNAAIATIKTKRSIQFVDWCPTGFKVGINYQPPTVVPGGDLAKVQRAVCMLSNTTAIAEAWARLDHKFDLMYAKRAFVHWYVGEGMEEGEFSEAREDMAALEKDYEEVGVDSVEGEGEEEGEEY
This assay was done according to reported procedures
In general terms: ELISA stands for enzyme-linked immunosorbent assay.

Another data set concerns MDA-MB-231 cells. The experiment in a line: Annexin V-FITC apoptosis analysis. In kind it is cell-based, human. The settings on record: IC50 concentration, 48 h. The source says:
Apoptosis induction was examined in treated MDA-MB-231 cells by use of an Annexin V-fluorescine isothiocyanate (FITC) (Abcam, Milton, Cambridge, UK). The treatment of the cells with target compound (6c) and erlotinib drug with antiproliferative detected concentrations have been applied for comparison. […] The apoptosis-inducing effect of target compound was investigated by flow cytometric analysis of MDA-MB-231 cells stained with Annexin V and propidium iodide. […] This might be extra behavior interpreting the potent cytotoxic effect of such compounds.
This analysis was performed following the reported procedures.

From publication PMC5855630, “The Design and Development of Potent Small Molecules as Anticancer Agents Targeting EGFR TK and Tubulin Polymerization” (International Journal of Molecular Sciences, 2018) come the findings set out here.

Structures are written as SMILES. Values joined by “and” are separate entries in the source; they are usually repeats but may differ in a detail not shown here. Equal entries are not always repeated.

For `O=C(Nc1ccccc1C(=O)NCc1ccc(Cl)cc1)c1ccco1` [Compound 4d, N-{2-[(4-Chlorobenzyl)carbamoyl]phenyl}furan-2-carboxamide], the melting point lay within 213 to 215 °C. This compound had an IC50 in data set [1] of 0.64 ± 0.25 nM. The IC50 in data set [2] (Homo sapiens, MDA-MB-231, 24 h) stood at 3.29 ± 0.14 nM.

In turn, `COc1ccc(CNC(=O)c2ccccc2NC(=O)c2ccco2)cc1` [Compound 4b, N-{2-[(4-Methoxybenzyl)carbamoyl]phenyl}furan-2-carboxamide] registered a melting point of 207 to 209 °C. In data set [1], inhibition was half-maximal at 0.45 ± 0.12 nM (IC50). In addition, inhibition in data set [2] (Homo sapiens, MDA-MB-231, 24 h) was half-maximal at 0.76 ± 0.11 nM (IC50). Moreover, the IC50 in data set [3] is 31 nM and 30.5 nM. The same compound came in with an IC50 in data set [4] of 140.8 ± 0.15 nM.

As to `O=C(Nc1ccccc1C(=O)NCc1ccccc1)c1ccco1` [Compound 4a], the melting point was in the range of 230 to 232 °C. The same compound came in with an IC50 in data set [1] of 3.35 ± 0.11 nM. For the same compound, in data set [2] (Homo sapiens, MDA-MB-231, 24 h), the IC50 was 8.82 ± 0.14 nM.

For the compound `O=C(Nc1ccccc1C(=O)Nc1ccc(S(=O)(=O)Nc2ccccn2)cc1)c1ccco1` [Compound 6b, N-{2-[(4-(N-(Pyridin-2-Yl)sulfamoyl]phenyl)carbamoyl)phenyl}furan-2-carboxamide], the melting point was in the range of 209 to 211 °C. Besides, the IC50 in data set [1] amounted to 0.065 nM. The compound also came in with an IC50 in data set [2] (Homo sapiens, MDA-MB-231, 24 h) of 4.45 ± 0.3 nM.

`Cc1ccc(CNC(=O)c2ccccc2NC(=O)c2ccco2)cc1` [Compound 4e, N-{2-[(4-Methylbenzyl)carbamoyl]phenyl}furan-2-carboxamide]: the melting point lay within 175 to 178 °C. The compound further had an IC50 in data set [1] of 0.88 ± 0.25 nM. This compound had an IC50 in data set [2] (Homo sapiens, MDA-MB-231, 24 h) of 5.59 ± 0.2 nM.

`O=C(Nc1ccccc1C(=O)N/N=C/c1ccccc1)c1ccco1` [Compound 9a, (E)-N-{2-[(2-Benzylidenehydrazine)-1-carbonyl]phenyl}furan-2-carboxamide] had a melting point of 205 to 207 °C. For the same compound, 0.51 ± 0.16 nM corresponded to half-maximal inhibition in data set [1] (IC50). Moreover, in data set [2] (Homo sapiens, MDA-MB-231, 24 h), the IC50 came to 0.68 ± 0.02 nM. The compound also displayed an IC50 in data set [3] of 59.3 ± 0.11 nM. For the same compound, the IC50 in data set [4] was 410.6 ± 0.12 nM.

In the case of `C#Cc1cccc(Nc2ncnc3cc(OCCOC)c(OCCOC)cc23)c1` [Erlotinib, reference compound], the IC50 in data set [1] amounted to 0.45 ± 0.08 nM; in data set [2] (Homo sapiens, MDA-MB-231, 24 h), 3.74 ± 0.01 nM. In addition, the “Apoptosis induction (Annexin V / propidium iodide flow cytometry)” value in the data set with MDA-MB-231 cells was “accumulation of apoptotic cells”.

On to `COC(=O)c1ccccc1NC(=O)c1ccco1` [Compound 2, Methyl 2-(Furan-2-carboxamido)benzoate], for which the melting point is 190 to 192 °C. Further, the midpoint of inhibition in data set [1], the IC50, lay at 2.43 ± 0.2 nM. The same compound yielded an IC50 in data set [2] (Homo sapiens, MDA-MB-231, 24 h) of 1.21 ± 0.25 nM.

The compound `NNC(=O)c1ccccc1NC(=O)c1ccco1` [Compound 7, N-[2-(Hydrazinecarbonyl)phenyl]furan-2-carboxamide] returned a melting point of 210 to 212 °C. In addition, the IC50 in data set [1] was found to be 1.91 ± 0.11 nM. Inhibition in data set [2] (Homo sapiens, MDA-MB-231, 24 h) was half-maximal at 35.85 ± 0.12 nM (IC50).

`O=C(Nc1ccccc1C(=O)N/N=C/c1ccc(Cl)cc1Cl)c1ccco1` [Compound 9d, (E)-N-{2-[2-(2,4-Dichlorobenzylidene)hydrazine-1-carbonyl]phenyl}furan-2-carboxamide] gave a melting point of 212 to 214 °C. In addition, the IC50 in data set [1] came out at 0.48 ± 0.14 nM. Also, the IC50 in data set [2] (Homo sapiens, MDA-MB-231, 24 h) worked out at 2.53 ± 0.12 nM.

With `NS(=O)(=O)c1ccc(NC(=O)c2ccccc2NC(=O)c2ccco2)cc1` [Compound 6a, N-{2-[(4-Sulfamoylphenyl)carbamoyl]phenyl}furan-2-carboxamide], the melting point was in the range of 188 to 189 °C. Moreover, the IC50 in data set [1] was 0.62 ± 0.12 nM. In data set [2] (Homo sapiens, MDA-MB-231, 24 h), this compound displayed an IC50 of 0.66 ± 0.11 nM. In data set [3], it took 85.4 ± 0.32 nM to reach half-maximal inhibition (IC50). This compound also gave an IC50 in data set [4] of 87.6 ± 0.13 nM.

As for `O=C(Nc1ccccc1C(=O)N/N=C/c1ccc(O)cc1O)c1ccco1` [Compound 9b, (E)-N-{2-[2-(2,4-Dihydroxybenzylidene)hydrazine-1-carbonyl]phenyl}furan-2-carboxamide], the IC50 in data set [1] was 0.78 ± 0.11 nM; in data set [2] (Homo sapiens, MDA-MB-231, 24 h), 0.48 ± 0.01 nM; in data set [3], 31 nM and 31.2 nM; in data set [4] it was 108.4 ± 0.14 nM.

In turn, `O=C(Nc1ccccc1C(=O)NCc1ccc(F)cc1)c1ccco1` [Compound 4c, N-{2-[(4-Fluorobenzyl)carbamoyl]phenyl}furan-2-carboxamide] displayed a melting point of 218 to 220 °C. This compound also had an IC50 in data set [1] of 2.59 ± 0.32 nM. In data set [2] (Homo sapiens, MDA-MB-231, 24 h), inhibition was half-maximal at 3.11 ± 0.5 nM (IC50).

As to `O=C(Nc1ccccc1C(=O)N/N=C/c1ccccn1)c1ccco1` [Compound 9c, (E)-N-{2-[2-(Pyridin-2-ylmethylene)hydrazine-1-carbonyl]phenyl}furan-2-carboxamide], the IC50 was 0.15 ± 0.15 nM in data set [1] and 14.8 ± 0.2 nM in data set [2] (Homo sapiens, MDA-MB-231, 24 h).

`O=C(Nc1ccccc1C(=O)Nc1ccc(S(=O)(=O)Nc2nccs2)cc1)c1ccco1` [Compound 6c, N-{2-[(4-(N-(Thiazol-2-Yl)sulfamoyl)phenyl)carbamoyl]phenyl}furan-2-carboxamide]: the IC50 came out at 0.34 ± 0.2 nM in data set [1]; 0.32 ± 0.21 nM in data set [2]; 0.4 nM in data set [2] (Homo sapiens, MDA-MB-231, 24 h); 110 ± 0.14 nM in data set [3]; 155 ± 0.25 nM in data set [4]. For the same compound, the “Apoptosis induction (Annexin V / propidium iodide flow cytometry)” value in the data set on MDA-MB-231 cells is “accumulation of apoptotic cells”.

In general, melting point refers to the temperature, or range, at which the solid turns liquid. As usually defined, the IC50 is the concentration at which inhibition is half-maximal. A low value points to inhibition by little substance.
